Measured values from patent publication US8318768B2, “Bronchodilating alpha, beta-unsaturated isoquinoline amides” (Respiratorius AB, priority 2007, dated 2012).

Tests used:
Format in all cases: cell-based
[1] = system: human bronchiols; assay: Leukotriene D4 induced contraction of human bronchiols, in vitro model (Biological Example 1); details: pre-treatment with compound 10 μM, Leukotriene D4 (10 nM) induced contraction, read-out: Remaining contraction (%)
Procedure: (§1) The usefulness of the compounds, as defined in the preceding embodiments, in treating, pretreating, revoking, mitigating, alleviating and/or preventing a condition of the respiratory apparatus characterized by bronchoconstriction, were evaluated in a complex and relevant in vitro model. The in vitro model was in accordance with the in vitro model disclosed in US 2006-0040254 A1 and by Skogvall, S., Berglund, M., Dalence-Guzman, M. F., Svensson, K., Jonsson, P., Persson, C. G. A and Sterner, O., in Pulmonary Pharmacology and Therapeutics, vol 20:3, 2007, p. 273-280. All references disclosed herein are hereby incorporated in their entirety by reference.
(§2) In short, lung tissue was obtained from patients undergoing lobectomia or pulmectomia due to lung carcinoma. From the bronchus of this tissue were rectangular oblong preparations obtained. The contraction induced by inflammatory mediators, such as Leukotriene D4, histamine, prostaglandin D2 or acetylcholine, in the presence and absence of the compound to be evaluated, were compared.
The remaining contraction, after pre-treatment with various compound examples at a concentration of 10 μM, of human bronchiols after Leukotriene D4 (10 nM) induced contraction according to the in vitro method described herein above are tabulated below.

[2] = system: human bronchiols; assay: Contraction of human bronchiols induced by acetylcholine, carbachol, histamine, methacholine or a mixture (Biological Example 2); details: compound 10 μM
Procedure: as §1, §2
(§3) The remaining contraction, after pre-treatment with various compound examples at a concentration of 10 μM, of human bronchiols or rat bronhi after the induction of contraction by treatment with the contractile agents acetylcholine (100 uM), carbachol (10 uM), histamine (100 uM), methacholine (100 uM) or a mixture of acetylcholine (100 uM), leukotriene D4 (LTD4) (0.01 uM) and histamine (100 uM), according to the in vitro method described herein above, are tabulated below: […]

[3] = system: rat bronhi; assay: Contraction of rat bronchi induced by acetylcholine, carbachol or methacholine (Biological Example 2); details: compound 10 μM
Procedure: as §1, §2, §3

[4] = system: MCP-1; assay: Human PBMC in vitro model, MCP-1 production (Luminex-based assay); details: compound 10 μM or dexamethasone 1 μM, 24 h supernatant
Procedure: (§4) Cryopreserved PBMC's (SeraCare, # 72001) were thawed, washed with culture media (RPMI-1640 from Invitrogen, # 61870-036+10% heat inactivated fetal bovine serum from Invitrogen, # 10082-147+100 U/ml penicillin+[…] streptomycin) and tested for viability using Trypan blue (PBMC viability=96%). Cells were then resuspended to 1×10^6 cells/ml in culture media and 0.5 ml was plated into 24 well culture plates (5×10^5 cells/well) before incubation for 30 minutes at 37° C. with 5% CO2 prior to addition of a compound of the present invention (10 μM) or dexamethasone (1 μM). One hour thereafter, LPS (0.1 μg/ml, Salmonella abortus equi, Sigma, # L1887) was added and the cells were incubated for another 24 h before collection of the cell culture supernatants, which were assayed for the presence of MCP-1 and LTB4.
MCP-1 levels were quantified employing a Luminex-based assay according the manufacturer's instructions. Data was collected using a Luminex 100 (Luminex Corporation, Austin, Tex.). Standard curves were generated using a 5-parameter logistic curve fitting equation weighted by 1/y (StarStation V 2.0; Applied Cytometry Systems, Sacramento, Calif.). Each sample reading was interpolated from the appropriate standard curve. Calculated concentrations were multiplied by the appropriate dilution factor when necessary.
(§5) The inhibitory effect of compounds of the present invention, dexamethasone, and vehicle on production of MCP-1 and LTB4 in the PBMC model as described herein above, with (+LPS) or without (−LPS) LPS-induced mediator production, is tabulated below.

[5] = system: LTB4; assay: Human PBMC in vitro model, LTB4 production (ELISA); details: compound 10 μM or dexamethasone 1 μM, 24 h supernatant
Procedure: as §4
LTB4 levels were quantified by ELISA following the manufacturer's instructions. Absorbance readings were detected using a ThermoMax microplate reader (Molecular Devices). Standard curves were generated using a 4-parameter logistic curve fitting equation (SoftMax Pro 4.7.1; Molecular Devices). Each sample reading was interpolated from the appropriate standard curve. Duplicate interpolated sample values were averaged and standard deviations were calculated. Calculated concentrations were multiplied by the appropriate dilution factor.
as §5

[6] = Mixture of Acetylcholine (100 uM), LTD4 (0.01 uM) and histamine (100 uM)

SMILES: C/C(=C\C(=O)N1CCc2c(Cl)c(O)c(O)c(Cl)c2C1)c1cnc2ccccc2c1 [Example 5, (E)-1-(5,8-dichloro-6,7-dihydroxy-3,4-dihydroisoquinolin-2(1H)-yl)-3-(quinolin-3-yl)but-2-en-1-one]
- activity at 10 µM [1]: 31%

SMILES: O=C(/C=C/c1ccc(F)cn1)N1CCc2c(Cl)c(O)c(O)c(Cl)c2C1 [Example 3, (E)-1-(5,8-dichloro-6,7-dihydroxy-3,4-dihydroisoquinolin-2-(1H)-yl)-3-(5-fluoropyridin-2-yl)prop-2-en-1-one]
- activity at 10 µM [1]: 24%
- REMAINING CONTRACTION (%) [2, 6]: 43%

SMILES: O=C(/C=C/c1cccnc1)N1CCc2c(Cl)c(O)c(O)c(Cl)c2C1 [Example 2, (E)-1-(5,8-dichloro-6,7-dihydroxy-3,4-dihydroisoquinolin-2(1H)-yl)-3-(pyridin-3-yl)prop-2-en-1-one]
- activity at 10 µM [1]: 44%

SMILES: O=C(/C=C/c1ccc(C(F)(F)F)nc1)N1CCc2c(Cl)c(O)c(O)c(Cl)c2C1 [Example 12, (E)-1-(5,8-dichloro-6,7-dihydroxy-3,4-dihydroisoquinolin-2(1H)-yl)-3-(6-(trifluoromethyl)pyridin-3-yl)prop-2-en-1-one]
- activity at 10 µM [1]: 6%
- REMAINING CONTRACTION (%) ([2]; Acetylcholine (100 uM)): 4%
- REMAINING CONTRACTION (%) ([2]; Carbachol (10 uM)): 10%
- REMAINING CONTRACTION (%) ([2]; Histamine (100 uM)): 1%
- REMAINING CONTRACTION (%) ([2]; Methacholine (100 uM)): 7%
- REMAINING CONTRACTION (%) [2, 6]: 12%
- REMAINING CONTRACTION (%) ([3]; Acetylcholine (100 uM)): 40%
- REMAINING CONTRACTION (%) ([3]; Carbachol (10 uM)): 27%
- REMAINING CONTRACTION (%) ([3]; Methacholine (100 uM)): 49%
- Mean MCP-1 ([4]; with LPS 0.1 μg/ml (+LPS)): 303.1 pg/mL
- Mean MCP-1 ([4]; without LPS (−LPS)): 229.7 pg/mL
- Mean LTB-4 ([5]; with LPS 0.1 μg/ml (+LPS)): 9.9 pg/mL
- Mean LTB-4 ([5]; without LPS (−LPS)): 3.9 pg/mL

SMILES: C/C(=C\C(=O)N1CCc2c(Cl)c(O)c(O)c(Cl)c2C1)c1ccc(C(F)(F)F)nc1 [Example 13]
- activity at 10 µM [1]: 7%
- REMAINING CONTRACTION (%) ([2]; Acetylcholine (100 uM)): 7%
- REMAINING CONTRACTION (%) ([2]; Histamine (100 uM)): 3%
- REMAINING CONTRACTION (%) [2, 6]: 18%
- REMAINING CONTRACTION (%) ([3]; Acetylcholine (100 uM)): 52%
- Mean MCP-1 ([4]; with LPS 0.1 μg/ml (+LPS)): 256.7 pg/mL
- Mean MCP-1 ([4]; without LPS (−LPS)): 217.1 pg/mL
- Mean LTB-4 ([5]; with LPS 0.1 μg/ml (+LPS)): 9.8 pg/mL
- Mean LTB-4 ([5]; without LPS (−LPS)): 4.3 pg/mL

SMILES: O=C(/C=C/c1ccccc1)N1CCc2c(Cl)c(O)c(O)c(Cl)c2C1 [Example 1, (E)-1-(5,8-dichloro-6,7-dihydroxy-3,4-dihydroisoquinolin-2(1H)-yl)-3-phenylprop-2-en-1-one]
- activity at 10 µM [1]: 41%

SMILES: O=C(/C=C\c1ccccc1O)N1CCc2c(Cl)c(O)c(O)c(Cl)c2C1 [Example 7, (Z)-1-(5,8-dichloro-6,7-dihyroxy-3,4-dihydroisoquinolin-2(1H)-yl)-3-(2-hydroxyphenyl)prop-2-en-1-one]
- activity at 10 µM [1]: 71%

SMILES: Cc1nc(C(F)(F)F)ccc1/C=C/C(=O)N1CCc2c(Cl)c(O)c(O)c(Cl)c2C1 [Example 11, (E)-1-(5,8-dichloro-6,7-dihydroxy-3,4-dihydroisoquinolin-2(1H)-yl)-3-(2-methyl-6-(trifluoromethyl)pyridin-3-yl)prop-2-en-1-one]
- activity at 10 µM [1]: 9%
- REMAINING CONTRACTION (%) [2, 6]: 25%

SMILES: C[C@@H]1C[C@H]2[C@@H]3CCC4=CC(=O)C=C[C@]4(C)[C@@]3(F)[C@@H](O)C[C@]2(C)[C@@]1(O)C(=O)CO [Dexamethasone, reference compound]
- Mean MCP-1 ([4]; with LPS 0.1 μg/ml (+LPS)): 1425.6 pg/mL
- Mean MCP-1 ([4]; without LPS (−LPS)): 0 pg/mL
- Mean LTB-4 ([5]; with LPS 0.1 μg/ml (+LPS)): 12.6 pg/mL
- Mean LTB-4 ([5]; without LPS (−LPS)): 2.7 pg/mL

SMILES: Cc1c(O)c(O)c(C)c2c1CCN(C(=O)/C=C/c1ccc(C(F)(F)F)nc1)C2 [Example 9, (E)-6,7-dihydroxy-5,8-dimethyl-1,2,3,4-tetrahydroisoquinoline 3-(6-(trifluoromethyl)pyridin-3-yl)acrylamide]
- activity at 10 µM [1]: 75%

SMILES: C/C(=C\C(=O)N1CCc2c(Cl)c(O)c(O)c(Cl)c2C1)c1ccc(F)cn1 [Example 8, (E)-1-(5,8-dichloro-6,7-dihydroxy-3,4-dihydroisoquinolin-2(1H)-yl)-3-(5-fluoropyridin-2-yl)but-2-en-1-one]
- activity at 10 µM [1]: 76%
